From patent publication US20080226605A1, “Methods and Compositions Facilitating Entry of Compounds Into Cells” (priority 2005, published 2008)

What was measured:
Format in all cases: cell-based, Human
DU145 cells [1] = test: Cellular uptake of fluorescein-labeled oligonucleotide (F-TFO), flow cytometry; settings: F-TFO 125 nM; for percentage of fluorescein-positive cells: neomycin 5 μM where present
Protocol: (§1) Cell culture. Human prostate cancer cells DU145 were grown in RPMI 1640 medium, supplemented with 10% heat-inactivated fetal bovine serum (Life Technologies) under standard conditions (Carbone et al., Nucleic Acids Res. 2003, 31, 833-843; Carbone et al., Nucleic Acids Res 2004, 32, 4358-4367).
Oligonucleotides and other reagents. The fluorescein-conjugated phosphorothioate oligonucleotide (F-TFO) was purchased from Sigma. The oligonucleotide was purified by high-performance liquid chromatography (HPLC). The sequence of the F-TFO, which is identical to the Ets2-TFO, has been published previously (Carbone et al., Nucleic Acids Res. 2003, 31, 833-843). Stock solutions of oligonucleotides were made in sterile water. Oligonucleotide concentrations were determined with a spectrophotometer using appropriate nucleotide extinction coefficients. DOTAP (1,2-dioleoyl-3-trimethyl-ammonium-propane) was purchased from Roche (Indianapolis, Ind.). Neomycin was purchased from Sigma, and used as described previously (Arya et al., J. Am. Chem. Soc. 2003, 125, 3733-3744).
Cellular uptake of oligonucleotides. Uptake of F-TFO and dauno-GT11 was examined 24 hours after transfection of DU145 cells (1.5×10^5 cells/well in 6-well plates) with DOTAP with or without the addition of neomycin as described above. Concentration of F-TFO was 125 nM, corresponding to about 1 μg of DNA/well. After 24 hours, cells were washed and analyzed using a FACSCalibur as described above.
Neomycin positively affected transfection efficiency of plasmid DNA mediated by DOTAP. This effect could be mediated by an increase in intracellular uptake and/or by an enhanced release of DNA from lipid complex into the cytoplasm. […] For the tests shown in FIG. 3, a phosporothioate oligonucleotide directed to the Ets2 gene promoter (Ets2-TFO) was conjugated at the 5′ end with fluorescein (Carbone et al., Nucleic Acids Res. 2003, 31, 833). Cells were transfected with the fluorescein labeled TFO (F-TFO) for 6 hours and then incubated for 24 hours in fresh medium before the analysis by flow cytometry. At the concentration used in the test, only about 7% of cells were fluorescein-positive when transfected with DOTAP alone. The percentage of fluorescein-positive cells increased to about 50% when the oligonucleotide was delivered using the combination of DOTAP and neomycin. Therefore, neomycin enhanced uptake of the F-TFO by approximately 7-fold.

DU145 cells [2] = test: EGFP reporter uptake (pEGFP transfection, flow cytometry)
Protocol: as §1
EGFP reporter uptake. DU145 cells were plated in 6-well plates at a density of 1.5×10^5 cells/well, grown overnight and then transfected. Trasfection mixtures contained 4 μg of pEGFP reporter plasmid with or without addition of neomycin and DOTAP at a 1:5 ratio as described above. Cells were incubated with the transfection complexes for 5 hours, then the medium was removed and replaced with fresh medium. After 24 hours, cells were harvested […], recovered by centrifugation, washed once with PBS, and then analyzed using a FACSCalibur (Becton Dickinson). Data were analyzed using Cell Quest software.
The effects of neomycin on transfection efficiency were further examined using another reporter system, a plasmid expressing green fluorescent protein, the pEGFP reporter vector. DU145 cells were transfected with the pEGFP plasmid in the presence of DOTAP, neomycin or both DOTAP and neomycin. After 24 hours, cells were collected and analyzed for EGFP expression by flow cytometry to examine both fluorescence intensity and percentage of EGFP-positive cells. […]

DU145 cells [3] = test: Luciferase reporter assay (transfection of reporter plasmids); settings: neomycin added to the medium after the transfection
Protocol: as §1
Reporter plasmids. The reporter plasmid pGL3-Ets2 containing the firefly luciferase gene under control of Ets2 promoter has been previously described (Carbone et al., Nucleic Acids Res 2004, 32, 4358-4367). The pRL-SV40 reporter plasmid was purchased from Promega. The pEGFP plasmid was obtained from Clontech.
Luciferase reporter assay. DU145 cells were plated in 48-well plates at a density of 1.5×10^4 cells/well. After 24 hours, cells were transfected with DOTAP-DNA complexes as previously described (Carbone et al., Nucleic Acids Res. 2003, 31, 833-843). […] Mixtures of DNA-DOTAP and DNA-DOTAP-neomycin were allowed to sit at room temperature for 15 minutes for complex formation. […] Luciferase activity was measured with the Luciferase assay system from Promega.
The effects of neomycin in combination with the cationic lipid preparation DOTAP on the uptake of luciferase reporter plasmids was determined. […] The efficiency of transfection as assessed by the luciferase assay increased as the concentration of neomycin increased from 0.5 to 5 μM (FIG. 1A). […]

[4] = flow cytometry 24 hours after transfection

Compound | mean fluorescent intensity (F-TFO) (DU145 cells [1]; [4]) | percentage of fluorescein-positive cells (DU145 cells [1]; [4]) | mean fluorescent intensity (EGFP) (DU145 cells [2]; pEGFP plasmid 4 μg, flow cytometry after 24 hours) | oligonucleotide uptake (DU145 cells [1]; neomycin alone (5 μM), without DOTAP) | efficiency of DNA uptake (DU145 cells [2]; pEGFP plasmid, neomycin alone (5 μM), without DOTAP) | effect on luciferase reporter activity (DU145 cells [3])
CCCCCCCC/C=C\CCCCCCCC(=O)OCC(C[N+](C)(C)C)OC(=O)CCCCCCC/C=C\CCCCCCCC (stereo not shown) [DOTAP, 1,2-dioleoyl-3-trimethyl-ammonium-propane] | 19.4 | about 7% | 27.8 |  |  | 
neomycin |  | 2.4% |  | did not affect | marginally affected | No effect
